Measured values as given in US8759354B2, “Pharmaceutical composition comprising pyrazine derivative, and method of using pyrazine derivative in combination” (priority 2007, dated 2014).
Like-named read-outs stand apart in the source and are kept apart here.

How the values were obtained:
[1] = test system: influenza virus (PR/8 (H1N1)); test: microbe, parasite or virus in culture; assay type: cell-based; settings: unidentified influenza virus, MDCK; for inhibition at 0.00625 µg/mL: read-out: Inhibition rate, single use, 0.00625 μg/mL; for inhibition at 0.0125 µg/mL: read-out: Inhibition rate, single use, 0.0125 μg/mL; for inhibition at 0.025 µg/mL: read-out: Inhibition rate, single use, 0.025 μg/mL; for inhibition at 0.05 µg/mL: read-out: Inhibition rate, single use, 0.05 μg/mL; for inhibition at 0.1 µg/mL: read-out: Inhibition rate, single use, 0.1 μg/mL; for inhibition at 0.2 µg/mL: read-out: Inhibition rate, single use, 0.2 μg/mL; for inhibition at 0.4 µg/mL: read-out: Inhibition rate, single use, 0.4 μg/mL; for inhibition at 0.0625 µg/mL: read-out: Inhibition rate, single use, 0.0625 μg/mL; for inhibition at 0.125 µg/mL: read-out: Inhibition rate, single use, 0.125 μg/mL; for inhibition at 0.25 µg/mL: read-out: Inhibition rate, single use, 0.25 μg/mL; for inhibition at 0.5 µg/mL: read-out: Inhibition rate, single use, 0.5 μg/mL; for inhibition at 1 µg/mL: read-out: Inhibition rate, single use, 1 μg/mL; for inhibition at 2 µg/mL: read-out: Inhibition rate, single use, 2 μg/mL
[2] = test system: Victoria/3/75 (H3N2) influenza virus; test: microbe, parasite or virus in culture; assay type: cell-based; settings: Influenza A virus, H3N2, MDCK, single use, read-out: Inhibition rate; for inhibition at 0.0125 µg/mL: 0.0125 μg/mL; for inhibition at 0.025 µg/mL: 0.025 μg/mL; for inhibition at 0.05 µg/mL: 0.05 μg/mL; for inhibition at 0.1 µg/mL: 0.1 μg/mL; for inhibition at 0.2 µg/mL: 0.2 μg/mL; for inhibition at 0.125 µg/mL: 0.125 μg/mL; for inhibition at 0.25 µg/mL: 0.25 μg/mL; for inhibition at 0.5 µg/mL: 0.5 μg/mL; for inhibition at 1 µg/mL: 1 μg/mL; for inhibition at 2 µg/mL: 2 μg/mL; for inhibition at 4 µg/mL: 4 μg/mL

CC(=O)N[C@H]1[C@H]([C@H](O)[C@H](O)CO)OC(C(=O)O)=C[C@@H]1N=C(N)N [Zanamivir, zanamivir]
inhibition at 0.0031 µg/mL ([1]; read-out: Inhibition rate, single use, 0.0031 μg/mL, Test Example 2): 6.2%
inhibition at 0.00625 µg/mL ([1]; Test Example 2): 12%
inhibition at 0.0125 µg/mL ([1]; Test Example 2): 23%
inhibition at 0.025 µg/mL ([1]; Test Example 2): 28%
inhibition at 0.05 µg/mL ([1]; Test Example 2): 49%
inhibition at 0.1 µg/mL ([1]; Test Example 2): 60%
inhibition at 0.2 µg/mL ([1]; Test Example 2): 67%
inhibition at 0.4 µg/mL ([1]; Test Example 2): 75%
inhibition at 0.0125 µg/mL ([2]; Test Example 4): 7.4%
inhibition at 0.025 µg/mL ([2]; Test Example 4): 14%
inhibition at 0.05 µg/mL ([2]; Test Example 4): 27%
inhibition at 0.1 µg/mL ([2]; Test Example 4): 40%
inhibition at 0.2 µg/mL ([2]; Test Example 4): 60%
inhibition at 0.4 µg/mL ([2]; 0.4 μg/mL, Test Example 4): 71%
inhibition at 0.8 µg/mL ([2]; 0.8 μg/mL, Test Example 4): 81%

CCC(CC)O[C@@H]1C=C(C(=O)O)C[C@H](N)[C@H]1NC(C)=O [GS-4071]
inhibition at 0.00313 µg/mL ([1]; read-out: Inhibition rate, single use, 0.00313 μg/mL, Test Example 1): 1.9%
inhibition at 0.00625 µg/mL ([1]; Test Example 1): 11%
inhibition at 0.0125 µg/mL ([1]; Test Example 1): 14%
inhibition at 0.025 µg/mL ([1]; Test Example 1): 25%
inhibition at 0.05 µg/mL ([1]; Test Example 1): 29%
inhibition at 0.1 µg/mL ([1]; Test Example 1): 42%
inhibition at 0.2 µg/mL ([1]; Test Example 1): 61%
inhibition at 0.4 µg/mL ([1]; Test Example 1): 73%
inhibition at 0.8 µg/mL ([1]; read-out: Inhibition rate, single use, 0.8 μg/mL, Test Example 1): 84%
inhibition at 0.003125 µg/mL ([2]; 0.003125 μg/mL, Test Example 3): 8.6%
inhibition at 0.00625 µg/mL ([2]; 0.00625 μg/mL, Test Example 3): 14%
inhibition at 0.0125 µg/mL ([2]; Test Example 3): 44%
inhibition at 0.025 µg/mL ([2]; Test Example 3): 54%
inhibition at 0.05 µg/mL ([2]; Test Example 3): 68%
inhibition at 0.1 µg/mL ([2]; Test Example 3): 80%
inhibition at 0.2 µg/mL ([2]; Test Example 3): 88%

NC(=O)c1nc(F)cnc1O [T-705, 6-Fluoro-3-hydroxy-2-pyrazinecarboxamide]
inhibition at 0.0156 µg/mL ([1]; read-out: Inhibition rate, single use, 0.0156 μg/mL, Test Example 1): 1.9%
inhibition at 0.0313 µg/mL ([1]; read-out: Inhibition rate, single use, 0.0313 μg/mL, Test Example 1): 6.7%
inhibition at 0.0625 µg/mL ([1]; Test Example 1): 9.7%
inhibition at 0.0625 µg/mL ([1]; Test Example 2): 6.2%
inhibition at 0.125 µg/mL ([1]; Test Example 1): 27%
inhibition at 0.125 µg/mL ([1]; Test Example 2): 17%
inhibition at 0.25 µg/mL ([1]; Test Example 1): 43%
inhibition at 0.25 µg/mL ([1]; Test Example 2): 34%
inhibition at 0.5 µg/mL ([1]; Test Example 1): 60%
inhibition at 0.5 µg/mL ([1]; Test Example 2): 64%
inhibition at 1 µg/mL ([1]; Test Example 1): 85%
inhibition at 1 µg/mL ([1]; Test Example 2): 77%
inhibition at 2 µg/mL ([1]; Test Example 1): 93%
inhibition at 2 µg/mL ([1]; Test Example 2): 89%
inhibition at 4 µg/mL ([1]; read-out: Inhibition rate, single use, 4 μg/mL, Test Example 1): 100%
inhibition at 0.125 µg/mL ([2]; Test Example 3): 2.6%
inhibition at 0.125 µg/mL ([2]; Test Example 4): 2.6%
inhibition at 0.25 µg/mL ([2]; Test Example 3): 9%
inhibition at 0.25 µg/mL ([2]; Test Example 4): 9.2%
inhibition at 0.5 µg/mL ([2]; Test Example 3): 42%
inhibition at 0.5 µg/mL ([2]; Test Example 4): 42%
inhibition at 1 µg/mL ([2]; Test Example 3): 76%
inhibition at 1 µg/mL ([2]; Test Example 4): 76%
inhibition at 2 µg/mL ([2]; Test Example 3): 86%
inhibition at 2 µg/mL ([2]; Test Example 4): 86%
inhibition at 4 µg/mL ([2]; Test Example 3): 94%
inhibition at 4 µg/mL ([2]; Test Example 4): 94%
